The values below come from patent publication US20250228239A1, “MOLECULES HAVING PESTICIDAL UTILITY, AND INTERMEDIATES, COMPOSITIONS, AND PROCESSES, RELATED THERETO” (priority 2024, published 2025).

Read-outs that look alike come from different tables or passages of the source.

What all share (assay type): in vivo
For assay [1], the system named is Cabbage Looper (Trichoplusia ni, TRIPNI). As to the kind of experiment: Bioassays on Cabbage Looper (CL), 128-well diet tray assay. Particulars: Trichoplusia ni. The gist of the method: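 Activity is mean percent mortality over eight wells of second-instar larvae exposed to diet treated at 50 μg/cm^2 for 5–7 days at 25° C.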
The test system of assay [2] is Yellow Fever Mosquito (Aedes aegypti, AEDSAE). Particulars: for YFM rating: Table ABC / ABC-DP rating. The gist of the method:
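Larvae ~1 day old, in liver powder/water; compound from 4000 ppm DMSO stock diluted with water/acetone (90:10); 6 reps; lidded, RT, 3 d; mortality scored per well, rated.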

In assay [3] the test system is Beet Armyworm (Spodoptera exigua, LAPHEG). Description: Bioassays on Beet Armyworm (BAW), 128-well diet tray assay. The note with it: Spodoptera exigua. The gist of the method: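 Test molecule was dissolved in 90:10 acetone-water and applied at 50 μg/cm^2 onto artificial diet in eight wells, then dried. Second instar larvae, one to five per well, were added, and trays were kept vented at 25° C. with a 14:10 photoperiod for five to seven days before mortality was recorded.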

Assay [4] deals with Green Peach Aphid (Myzus persicae, MYZUPE). Description: Bioassays on Green Peach Aphid (GPA), foliar spray on cabbage seedlings. The note with it: 72 h. As to the method: Certain molecules disclosed in this document were tested against GPA using procedures described in the following example. In the reporting of the results, the “GPA & YFM Rating Table” was used (See Table Section).
Cabbage seedlings grown in 3-inch pots, with 2-3 small (3-5 cm) true leaves, were used as test substrate. The seedlings were infested with 20-50 GPA (wingless adult and nymph stages) one day prior to chemical application. Four pots with individual seedlings were used for each treatment. Test molecules (2 mg) were dissolved in 2 mL of acetone/methanol (1:1) solvent, forming stock solutions of 1000 ppm test molecule. The stock solutions were diluted 5× with 0.025% Tween 20 in water to obtain the solution at 200 ppm test molecule. A hand-held aspirator-type sprayer was used for spraying a solution to both sides of […] leaves until runoff. Reference plants (solvent check) were sprayed with the diluent only containing 20% by volume of acetone/methanol (1:1) solvent. Treated plants were held in a holding room for three days at approximately 25° C. and ambient relative humidity (RH) prior to grading. Evaluation was conducted by counting the number of live aphids per plant under a microscope. Percent control was measured using Abbott's correction formula (W. S. Abbott, “A Method of Computing the Effectiveness of an Insecticide” J. Econ. Entomol. 18 (1925), pp. 265-267) as follows. Corrected % Control=100*(X−Y)/X where X=No. of live aphids on solvent check plants and Y=No. of live aphids on treated plants. The results are indicated in the table entitled “Table ABC: Biological Results” (See Table Section).

[5] abbreviates: Cabbage Looper, rating class, read-out: CL.
Setting [6] is: Yellow Fever Mosquito, rating class.
[7] abbreviates: Beet Armyworm, rating class, read-out: BAW.
Where [8] appears, read: Green Peach Aphid, rating class, read-out: GPA.
The mark [9] stands for this setting: Cabbage Looper, Table ABC / ABC-DP rating, read-out: CL rating.
Where [10] appears, read: Beet Armyworm, Table ABC / ABC-DP rating, read-out: BAW rating.
Where [11] appears, read: Green Peach Aphid, Table ABC / ABC-DP rating, read-out: GPA rating.
Where [12] appears, read: Table ABC: Biological Results, species CL, read-out: CL.
Where [13] appears, read: Table ABC: Biological Results, species YFM.
[14] abbreviates: Table ABC: Biological Results, species BAW, read-out: BAW.
The mark [15] stands for this setting: Table ABC: Biological Results, species GPA, read-out: GPA.

With `O=C(Nc1ccc(F)c(NC(=O)C(F)(F)F)c1F)c1cc(NC(=O)[C@H]2[C@H](c3ccc(F)c(C(F)(F)F)c3)C2(Cl)Cl)ccc1F` [F1529, 5-((1R,3R)-2,2-Dichloro-3-(4-fluoro-3-(trifluoromethyl)phenyl)cyclopropane-1-carboxamido)-N-(2,4-difluoro-3-(2,2,2-trifluoroacetamido)phenyl)-2-fluorobenzamide], the pest or weed control at 50 µg/cm2 in assay [1] (setting [5]) and in assay [3] (setting [7]) was 50 to 100% each time. The YFM entry in assay [2] (setting [6]) was “A (80–100)”. The pest or weed control at 200 µg/mL in assay [4] (setting [8]) was 0 to 80%.

For `Nc1cc(NC(=O)c2cc(NC(=O)[C@H]3[C@H](c4ccc(F)c(C(F)(F)F)c4)C3(Cl)Cl)ccc2Cl)c(F)c(F)c1F` [F1740, N-(5-Amino-2,3,4-trifluorophenyl)-2-chloro-5-((1R,3R)-2,2-dichloro-3-(4-fluoro-3-(trifluoromethyl)phenyl)cyclopropane-1-carboxamido)benzamide], the pest or weed control at 50 µg/cm2 in assay [1] (setting [5]) and in assay [3] (setting [7]) was 50 to 100% in each case. The YFM entry in assay [2] (setting [6]) is “A (80–100)”. Also, in assay [4] (setting [8]), the pest or weed control at 200 µg/mL is 80 to 100%.

Take `O=C(Nc1ccc(F)c(NC(=O)C2CC(F)(F)C2)c1F)c1cc(NC(=O)[C@H]2[C@H](c3ccc(F)c(C(F)(F)F)c3)C2(Cl)Cl)ccc1Cl` [F1644, 2-Chloro-5-((1R,3R)-2,2-dichloro-3-(4-fluoro-3-(trifluoromethyl)phenyl)cyclopropane-1-carboxamido)-N-(3-(3,3-difluorocyclobutane-1-carboxamido)-2,4-difluorophenyl)benzamide]: the pest or weed control at 50 µg/cm2 in assay [1] (setting [5]) and in assay [3] (setting [7]) was 50 to 100% throughout. Besides, the YFM entry in assay [2] (setting [6]) was “B (More than 0 – Less than 80)”. Moreover, the pest or weed control at 200 µg/mL in assay [4] (setting [8]) lay within 0 to 80%.

As for `CCC(C)C(=O)Nc1c(F)ccc(NC(=O)c2cc(NC(=O)[C@H]3[C@H](c4ccc(F)c(C(F)(F)F)c4)C3(Cl)Cl)ccc2Cl)c1F` (stereo partly drawn) [F1642, 2-Chloro-5-((1R,3R)-2,2-dichloro-3-(4-fluoro-3-(trifluoromethyl)phenyl)cyclopropane-1-carboxamido)-N-(2,4-difluoro-3-(2-methylbutanamido)phenyl)benzamide], the pest or weed control at 50 µg/cm2 in assay [1] (setting [5]) and in assay [3] (setting [7]) was 50 to 100% throughout. In assay [2] (setting [6]), the YFM entry is given as “A (80–100)”. For the same compound, the pest or weed control at 200 µg/mL in assay [4] (setting [8]) was 0 to 80%.

Take `CC(=O)Nc1c(F)ccc(NC(=O)c2cc(NC(=O)[C@H]3[C@H](c4ccc(F)c(Cl)c4)C3(Cl)Cl)ccc2Cl)c1F` [F1694, N-(3-Acetamido-2,4-difluorophenyl)-2-chloro-5-((1R,3R)-2,2-dichloro-3-(3-chloro-4-fluorophenyl)cyclopropane-1-carboxamido)benzamide]: the pest or weed control at 50 µg/cm2 in assay [1] (setting [5]) and in assay [3] (setting [7]) was 50 to 100% in each case. Besides, the YFM entry in assay [2] (setting [6]) is listed as “A (80–100)”. In addition, the pest or weed control at 200 µg/mL in assay [4] (setting [8]) was in the range of 80 to 100%.

Consider `O=C(NCCF)c1c(Cl)ccc(NC(=O)[C@H]2[C@H](c3ccc(F)c(Cl)c3)C2(Cl)Cl)c1Cl` (relative stereo) [F2025, trans-2,6-Dichloro-3-(2,2-dichloro-3-(3-chloro-4-fluorophenyl)cyclopropane-1-carboxamido)-N-(2-fluoroethyl)benzamide], for which the pest or weed control at 50 µg/cm2 in assay [1] (setting [9]) and in assay [3] (setting [10]) was 50 to 100% each time. Further, the YFM rating result in assay [2] (Yellow Fever Mosquito) is reported as “A (80–100)”. The pest or weed control at 200 µg/mL in assay [4] (setting [11]) lay within 0 to 80%.

`O=C(Nc1c(F)ccc(NC(=O)C(F)F)c1F)c1cc(NC(=O)[C@H]2[C@H](c3ccc(F)c(Cl)c3)C2(Cl)Cl)ccc1Cl` [F1234, 2-Chloro-5-((1R,3R)-2,2-dichloro-3-(3-chloro-4-fluorophenyl)cyclopropane-1-carboxamido)-N-(3-(2,2-difluoroacetamido)-2,6-difluorophenyl)benzamide]: the pest or weed control at 50 µg/cm2 in assay [1] (setting [12]) and in assay [3] (setting [14]) was 50 to 100% each time. The YFM entry in assay [2] (setting [13]) is reported as “A (80–100)”. The pest or weed control at 200 µg/mL in assay [4] (setting [15]) is 80 to 100%.

As to `O=C(CC(F)(F)F)Nc1c(F)ccc(NC(=O)c2cc(NC(=O)[C@H]3[C@H](c4cc(F)cc(C(F)(F)F)c4)C3(Cl)Cl)ccc2Cl)c1F` [F1710, 2-Chloro-5-((1R,3R)-2,2-dichloro-3-(3-fluoro-5-(trifluoromethyl)phenyl)cyclopropane-1-carboxamido)-N-(2,4-difluoro-3-(3,3,3-trifluoropropanamido)phenyl)benzamide], the pest or weed control at 50 µg/cm2 in assay [1] (setting [5]) and in assay [3] (setting [7]) was 50 to 100% each time. Also, the YFM result in assay [2] (setting [6]) was “A (80–100)”. Besides, the pest or weed control at 200 µg/mL in assay [4] (setting [8]) lay in the range of 0 to 80%.

Take `O=C(Nc1ccc(F)cc1F)c1cc(NC(=O)[C@H]2[C@H](c3cc(Cl)c(Cl)c(C(F)(F)F)c3)C2(Cl)Cl)ccc1Cl` (relative stereo) [F1147, trans-2-Chloro-5-(2,2-dichloro-3-(3,4-dichloro-5-(trifluoromethyl)phenyl)cyclopropane-1-carboxamido)-N-(2,4-difluorophenyl)benzamide]: the pest or weed control at 50 µg/cm2 in assay [1] (setting [12]) and in assay [3] (setting [14]) was 50 to 100% each time. The YFM entry in assay [2] (setting [13]) is listed as “A (80–100)”. Moreover, the pest or weed control at 200 µg/mL in assay [4] (setting [15]) lay in the range of 80 to 100%.

On to `Cc1cc(NC(=O)[C@H]2[C@H](c3ccc(F)c(Cl)c3)C2(Cl)Cl)cc(C(=O)NCC(F)(F)C(F)(F)F)c1Cl` (relative stereo) [F2039, trans-2-Chloro-5-(2,2-dichloro-3-(3-chloro-4-fluorophenyl)cyclopropane-1-carboxamido)-3-methyl-N-(2,2,3,3,3-pentafluoropropyl)benzamide], for which the pest or weed control at 50 µg/cm2 in assay [1] (setting [9]) and in assay [3] (setting [10]) was 50 to 100% throughout. Besides, in assay [2] (Yellow Fever Mosquito), the YFM rating entry is “A (80–100)”. Further, the pest or weed control at 200 µg/mL in assay [4] (setting [11]) lay within 80 to 100%.

Turning to `CCCC(=O)Nc1c(F)ccc(NC(=O)c2cc(NC(=O)[C@H]3[C@H](c4ccc(F)c(Cl)c4)C3(Cl)Cl)ccc2Cl)c1F` [F1705, N-(3-Butyramido-2,4-difluorophenyl)-2-chloro-5-((1R,3R)-2,2-dichloro-3-(3-chloro-4-fluorophenyl)cyclopropane-1-carboxamido)benzamide], the pest or weed control at 50 µg/cm2 in assay [1] (setting [5]) and in assay [3] (setting [7]) was 50 to 100% each time. Further, the YFM result in assay [2] (setting [6]) was “B (More than 0 – Less than 80)”. Further, in assay [4] (setting [8]), the pest or weed control at 200 µg/mL was 80 to 100%.

On to `Nc1c(F)ccc(NC(=O)c2cc(NC(=O)[C@H]3[C@H](c4ccc(F)c(Cl)c4)C3(Cl)Cl)cc(F)c2Cl)c1F` [F1255, N-(3-amino-2,4-difluorophenyl)-2-chloro-5-((1R,3R)-2,2-dichloro-3-(3-chloro-4-fluorophenyl)cyclopropane-1-carboxamido)-3-fluorobenzamide], for which the pest or weed control at 50 µg/cm2 in assay [1] (setting [12]) and in assay [3] (setting [14]) was 50 to 100% each time. Besides, the pest or weed control at 200 µg/mL in assay [4] (setting [15]) fell in the range of 80 to 100%.

In the case of `CC(=O)Nc1ccc(F)c(NC(=O)c2cc(NC(=O)[C@H]3[C@H](c4cc(Cl)cc(Cl)c4)C3(Cl)Cl)cc(F)c2Cl)c1F` [F1505, N-(3-acetamido-2,6-difluorophenyl)-2-chloro-5-((1R,3R)-2,2-dichloro-3-(3,5-dichlorophenyl)cyclopropane-1-carboxamido)-3-fluorobenzamide], the pest or weed control at 50 µg/cm2 in assay [1] (setting [5]) and in assay [3] (setting [7]) was 50 to 100% each time. Further, the pest or weed control at 200 µg/mL in assay [4] (setting [8]) fell in the range of 0 to 80%.
